Measured values published in patent publication US20220339134A1, “VERY-LONG-CHAIN POLYUNSATURATED FATTY ACIDS, ELOVANOID HYDROXYLATED DERIVATIVES, AND METHODS OF USE” (Board of Supervisors of Louisiana State University and …, priority 2019, published 2022).

How the values were obtained:
[1] = test system: hypothalamic neurons; assay: Fluoro-Jade B staining of organotypic hypothalamus slices; assay type: cell-based, db/db mice; details: 500 nM, 48 h incubation; db/db hypothalamus slices
Experimental: Fluoro-Jade b (F-Jb) stains degenerating neurons. […] 48 h incubation with 500 nM ELV34 elicited neuroprotection that was reflected in the decrease of F-Jb signal (a).

[2] = test system: primary human RPE cells; assay: Primary human RPE cells treated with 10 μM OAβ +/- ELVs (SA-β-Gal staining, qPCR); assay type: cell-based; details: 3 days qPCR, 7 days staining
Experimental: (A) In vitro experimental design: Primary human RPE cells were treated with 10 μM OAβ+/−ELVs. After 3 days, RNA was isolated and qPCR analyzed. After 7 days, cells were subjected to β-Galactosidase staining. (B) Live cell images under bright field microscopy after 7 days. (C) β-Gal staining+/−ELVs. Quantitation of % for the β-Gal positive cells. ELVs decreased positive senescent cells. (D) Gene transcription of senescence, AMD-related and autophagy genes after OAβ (1-42) exposure+/−ELVs. (*P <0.05, student t-test).
OAβ toxicity is counteracted by ELVs in primary hRPE. (A) Primary hRPE cells were treated with 10 μM OAβ with or without adding ELVs. After 3 days, the total RNA was isolated and q-PCR analyzed. After 7 days, cells were subjected to β-Galactosidase staining. (B) Live cell images of primary hRPE under bright field microscope imaging after 7 days. (C) β-Galactosidase staining of primary hRPE, +/−ELVs. Quantitation of % for the β-Gal positive cells. ELVs decreased positive senescent cells. […]
Cells were visualized using SA-β-Gal staining kit (Cat 9860, Cell Signaling Technology, MA, USA). […] Pictures were taken under brightfield microscope (Nikon Eclipse TS100) 200× magnification after the development of blue color, and cells counted in 10 different random fields per well. […]

[3] = test system: hypothalamus, SAT and VAT; assay: Adiponectin levels in diabetic hypothalamus and adipose tissue; design: species or system db/db mice
[4] = methyl ester or sodium salt; administered 1 hour following 2 hours of ischemia; cited from earlier work
[5] = test system: human diabetic and non-diabetic adipocytes; assay: TP53 and IL8 expression (Taqman Real time PCR) in human adipocytes treated with IL1β; assay type: cell-based
Experimental: A) experimental design. B) expression levels of TP53 and IL8 in human diabetic and non-diabetic adipocytes by the means of Taqman Real time PCR.
IL1β is a cytokine that induce insulin resistance in adipocytes 18 • Similarly, IL8 was elevated by IL1β and brought down around 40 folds by 500 nM ELV34 in both diabetic and non-diabetic adipocytes. Even though the mechanisms are unknown ELV34 can be a therapeutic agent to stop or halt damaging signaling observed in diabetic patients.

With `CC/C=C\C[C@H](O)\C=C/C=C/C=C/[C@H](O)C/C=C\C/C=C\CCCCCCCCCCCCCCC(=O)O` [ELV-N-34] the “F-Jb signal (degenerating neurons)” value [1] was “decrease”, the “OAβ effects: RPE cell morphology, SASP (SA-β-Gal), senescence, AMD, MMP and autophagy gene expression” value [2] was “reverted these effects” and the “adiponectin in subcutaneous (SAT) and visceral adipose tissue (VAT)” value [3] was “Differential effect”. The “levels of Adiponectin” value ([3]; ELV34 treatment) was “increased”, the “adiponectin in diabetic hypothalamus” value ([3]; female and males) was “trend of increase” and the cell survival [4] was “promoted cell survival”. The infarct volumes [4] was “reduced infarct volumes”, the neurovascular unit disruption [4] was “diminished neurovascular unit disruption” and the IL8 brought down ([5]; 500 nM, IL1β-elevated, diabetic and non-diabetic adipocytes) was “around 40 folds”. For the same compound, the “levels of TP53 mRNA” value ([5]; adipocytes from diabetic patient treated with IL1β) was “down to non-diabetic control levels” and the “effect of IL1β (TP53 and IL8 expression)” value ([5]; human diabetic adipocytes) was “revert the effect of IL1β”.
